# Assay results as given in ChEMBL document CHEMBL1201862, “PubChem BioAssay data set” (2004).
#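 Five concentrations, 48 hours, 96-well plates. GI50 marks 50% less growth.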 The source made the active and inactive calls. No stated cut-off is given here; in the data, active = GI50 up to about 1.1 µM and inactive = higher.
# What was measured:
# Test in all cases: NCI anticancer screen, dose series, 48 h
# SK-MEL-5 = system: SK-MEL-5
# HOP-92 = system: HOP-92
# Malme-3M = system: Malme-3M
# NCI-H522 = system: NCI-H522
# RPMI-8226 = system: RPMI-8226
# OVCAR-5 = system: OVCAR-5
# PC-3 = system: PC-3
# UACC-257 = system: UACC-257
# SR = system: SR
# K562 = system: K562
# KM12 = system: KM12
# SF-539 = system: SF-539
# BT-549 = system: BT-549
# MDA-N = system: MDA-N
# SK-MEL-2 = system: SK-MEL-2
# OVCAR-3 = system: OVCAR-3
# SF-295 = system: SF-295
# SK-OV-3 = system: SK-OV-3
# SW-620 = system: SW-620
# T47D = system: T47D
SMILES,GI50 (SK-MEL-5),GI50 (HOP-92),GI50 (Malme-3M),GI50 (NCI-H522),GI50 (RPMI-8226),GI50 (OVCAR-5),GI50 (PC-3),GI50 (UACC-257),GI50 (SR),GI50 (K562),GI50 (KM12),GI50 (SF-539),GI50 (BT-549),GI50 (MDA-N),GI50 (SK-MEL-2),GI50 (OVCAR-3),GI50 (SF-295),GI50 (SK-OV-3),GI50 (SW-620),GI50 (T47D)
CC(=O)N1CCc2c([nH]c3ccc(Br)cc23)C1c1ccccc1 (stereo not given),2.4 µM (inactive),> 10 µM (inactive),> 10 µM (inactive),> 7.82 µM (inactive),2.29 µM (inactive),> 10 µM (inactive),1.12 µM (active),> 10 µM (inactive),0.733 µM (active),0.752 µM (active),> 3.41 µM (inactive),> 6.81 µM (inactive),7.03 µM (inactive),2.61 µM (inactive),> 10 µM (inactive),> 10 µM (inactive),2.4 µM (inactive),> 7.71 µM (inactive),2.62 µM (inactive),> 10 µM (inactive)
O=C([O-])C(O)C(O)C(=O)O.[K+] (stereo not given) [POTASSIUM HYDROGENTARTRATE],> 100 µM (inactive),> 100 µM (inactive),> 100 µM (inactive),> 100 µM (inactive),> 100 µM (inactive),> 100 µM (inactive),> 100 µM (inactive),> 100 µM (inactive),> 100 µM (inactive),> 100 µM (inactive),> 100 µM (inactive),> 100 µM (inactive),> 100 µM (inactive),> 100 µM (inactive),> 100 µM (inactive),> 100 µM (inactive),> 100 µM (inactive),> 100 µM (inactive),> 100 µM (inactive),> 100 µM (inactive)
Cc1cc2c(c(=O)o1)C1=S(SC(c3ccccc3)=C1)S2 (stereo not given),47.4 µM (inactive),20.8 µM (inactive),30.1 µM (inactive),37.6 µM (inactive),55.6 µM (inactive),78.9 µM (inactive),24.4 µM (inactive),> 100 µM (inactive),18.3 µM (inactive),38.4 µM (inactive),84.3 µM (inactive),24.3 µM (inactive),> 100 µM (inactive),> 100 µM (inactive),66.4 µM (inactive),24.9 µM (inactive),27.3 µM (inactive),23.8 µM (inactive),> 100 µM (inactive),36.9 µM (inactive)
Oc1ccc(SCc2cc(O)c(O)c(O)c2)cc1,18 µM (inactive),> 100 µM (inactive),61.5 µM (inactive),22 µM (inactive),26.7 µM (inactive),22.4 µM (inactive),40.3 µM (inactive),> 100 µM (inactive),25.5 µM (inactive),13.2 µM (inactive),20.3 µM (inactive),82.8 µM (inactive),25.6 µM (inactive),> 10 µM (inactive),26.1 µM (inactive),39.4 µM (inactive),15.8 µM (inactive),65.9 µM (inactive),36.5 µM (inactive),> 100 µM (inactive)
CC1(C)OCC(C2OC(On3nnc4ccc(Cl)cc43)C3OC(C)(C)OC23)O1 (stereo not given),> 100 µM (inactive),> 100 µM (inactive),> 100 µM (inactive),> 100 µM (inactive),> 100 µM (inactive),> 100 µM (inactive),> 100 µM (inactive),> 100 µM (inactive),> 100 µM (inactive),22.4 µM (inactive),> 100 µM (inactive),> 100 µM (inactive),> 100 µM (inactive),> 100 µM (inactive),> 100 µM (inactive),> 100 µM (inactive),> 100 µM (inactive),> 100 µM (inactive),> 100 µM (inactive),> 100 µM (inactive)
Cc1ccc(C(=O)OC(C)C)cc1/N=N/N(C)C,> 64.9 µM (inactive),> 93.3 µM (inactive),> 100 µM (inactive),31.1 µM (inactive),> 100 µM (inactive),> 100 µM (inactive),99.1 µM (inactive),27.1 µM (inactive),> 100 µM (inactive),> 100 µM (inactive),> 84.5 µM (inactive),> 100 µM (inactive),> 100 µM (inactive),> 100 µM (inactive),> 100 µM (inactive),46 µM (inactive),58.6 µM (inactive),> 100 µM (inactive),> 100 µM (inactive),44.5 µM (inactive)
CCCCOc1ccc(S(=O)(=O)N/C(N)=N/c2ccc(Cl)cc2)cc1,18.9 µM (inactive),10.8 µM (inactive),14.6 µM (inactive),10.5 µM (inactive),17.2 µM (inactive),17.7 µM (inactive),17.3 µM (inactive),14.1 µM (inactive),3.27 µM (inactive),15 µM (inactive),17.9 µM (inactive),20.9 µM (inactive),17.8 µM (inactive),16.2 µM (inactive),17.1 µM (inactive),14.9 µM (inactive),18.3 µM (inactive),19.1 µM (inactive),15.5 µM (inactive),10.7 µM (inactive)
O=C(Nc1cccc2nsnc12)c1cc2c(cc1Cl)Sc1nccn1S2(=O)=O,17.9 µM (inactive),4.4 µM (inactive),74.5 µM (inactive),8.2 µM (inactive),2.26 µM (inactive),32.4 µM (inactive),1.9 µM (inactive),1.81 µM (inactive),2.73 µM (inactive),3.98 µM (inactive),2.08 µM (inactive),3.52 µM (inactive),15.1 µM (inactive),14.1 µM (inactive),11.2 µM (inactive),1.68 µM (inactive),14.1 µM (inactive),54.5 µM (inactive),10.5 µM (inactive),2.24 µM (inactive)
C=CCN(c1cc(OCc2ccccc2)c2[nH]cc(C)c2c1)S(C)(=O)=O,52.4 µM (inactive),44 µM (inactive),27.5 µM (inactive),37 µM (inactive),39.4 µM (inactive),79.8 µM (inactive),49.4 µM (inactive),52.7 µM (inactive),> 100 µM (inactive),> 100 µM (inactive),51.4 µM (inactive),56.2 µM (inactive),> 100 µM (inactive),89.7 µM (inactive),41.7 µM (inactive),25 µM (inactive),31.5 µM (inactive),37.3 µM (inactive),> 100 µM (inactive),18.8 µM (inactive)
CO[C@@H]1[C@H](OC(=O)NC(=O)CCl)CC[C@]2(CO2)[C@H]1[C@@]1(C)O[C@@H]1CC=C(C)C [O-CHLOROACETYLCARBAMOYLFUMAGILLOL],8.83 µM (inactive),15.6 µM (inactive),5.97 µM (inactive),5.35 µM (inactive),6.93 µM (inactive),17.3 µM (inactive),10.7 µM (inactive),11 µM (inactive),5.64 µM (inactive),12.2 µM (inactive),11.5 µM (inactive),10.6 µM (inactive),14.6 µM (inactive),11.4 µM (inactive),13.6 µM (inactive),3.49 µM (inactive),5.65 µM (inactive),15.3 µM (inactive),9.53 µM (inactive),12.6 µM (inactive)
COc1ccc2c(c1OC)CN1CCc3cc4c(cc3C1C2)OCO4 (stereo not given) [TETRAHYDROBERBERINE],> 100 µM (inactive),> 100 µM (inactive),> 100 µM (inactive),> 100 µM (inactive),> 100 µM (inactive),> 100 µM (inactive),> 100 µM (inactive),> 100 µM (inactive),> 100 µM (inactive),80 µM (inactive),> 100 µM (inactive),> 100 µM (inactive),> 100 µM (inactive),> 100 µM (inactive),> 100 µM (inactive),> 100 µM (inactive),> 100 µM (inactive),> 100 µM (inactive),> 100 µM (inactive),> 100 µM (inactive)
CCc1c(CNC2=NCCN2)c(CC)c(CNC2=NCCN2)c(CC)c1CNC1=NCCN1,> 100 µM (inactive),> 100 µM (inactive),> 100 µM (inactive),> 100 µM (inactive),> 100 µM (inactive),> 100 µM (inactive),> 100 µM (inactive),> 100 µM (inactive),> 100 µM (inactive),> 100 µM (inactive),> 100 µM (inactive),> 100 µM (inactive),> 100 µM (inactive),> 100 µM (inactive),> 100 µM (inactive),> 100 µM (inactive),> 100 µM (inactive),> 100 µM (inactive),> 100 µM (inactive),> 100 µM (inactive)
CC(C)(C)N1Cc2ccccc2/C(=C/Sc2ccccc2)C1=O,6.9 µM (inactive),13.3 µM (inactive),13.3 µM (inactive),2.75 µM (inactive),5.82 µM (inactive),19.4 µM (inactive),12.6 µM (inactive),14.3 µM (inactive),2.64 µM (inactive),5.85 µM (inactive),17 µM (inactive),8.57 µM (inactive),6.53 µM (inactive),6.55 µM (inactive),15.2 µM (inactive),12 µM (inactive),17.4 µM (inactive),17.4 µM (inactive),7.21 µM (inactive),16.6 µM (inactive)
O=C1NC(=O)C(F)(n2cc(F)c(=O)[nH]c2=O)C(O)N1 (stereo not given),> 10 µM (inactive),> 10 µM (inactive),> 10 µM (inactive),> 10 µM (inactive),> 10 µM (inactive),> 10 µM (inactive),> 10 µM (inactive),> 10 µM (inactive),> 10 µM (inactive),> 10 µM (inactive),> 10 µM (inactive),> 10 µM (inactive),> 10 µM (inactive),> 10 µM (inactive),> 10 µM (inactive),> 10 µM (inactive),> 10 µM (inactive),> 10 µM (inactive),> 10 µM (inactive),> 10 µM (inactive)
